In patent US4684664A, “Derivatives of β-(4-isocyano-1,2,3,4-diepoxycyclopentyl) acrylic acid” (Kureha Kagaku Kogyo Kabushiki Kaisha, priority 1984, dated 1987):
In brackets after ≈: the same amount, converted by molar mass.

Key:
Type in all cases: cell-based
[1] = tested on: Candida albicans IAM 4905; assay: Antifungal activity, agar-dilution MIC, organism No. 29
Method in brief: (§1)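 An agar-dilution procedure on bouillon-agar medium was applied, and each MIC was recorded as micrograms of specimen per ml of medium.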

[2] = tested on: Pseudomonas aeruginosa IFO 3445; assay: Antibacterial activity, agar-dilution MIC, organism No. 15
Method in brief: as §1

[3] = tested on: Streptococcus faecium IFO 3826; assay: Antibacterial activity, agar-dilution MIC, organism No. 27
Method in brief: as §1

[4] = tested on: Staphylococcus aureus MS 353; assay: Antibacterial activity, agar-dilution MIC, organism No. 3
Method in brief: as §1

[5] = tested on: Proteus mirabilis IFO 3849; assay: Antibacterial activity, agar-dilution MIC, organism No. 19
Method in brief: as §1

[6] = tested on: Streptococcus pyogenes Cook; assay: Antibacterial activity, agar-dilution MIC, organism No. 4
Method in brief: as §1

[7] = tested on: Salmonella typhimurium IID 971; assay: Antibacterial activity, agar-dilution MIC, organism No. 8
Method in brief: as §1

[8] = tested on: Enterobacter aerogenes ATCC 13048; assay: Antibacterial activity, agar-dilution MIC, organism No. 23
Method in brief: as §1

[9] = tested on: Bacillus subtilis ATCC 6633; assay: Antibacterial activity, agar-dilution MIC, organism No. 14
Method in brief: as §1

Salmonella typhi 901 = assay: Antibacterial activity, agar-dilution MIC, organism No. 9
Method in brief: as §1

[10] = tested on: Escherichia coli K12 C600 IAM 1264; assay: Antibacterial activity, agar-dilution MIC, organism No. 6
Method in brief: as §1

[11] = tested on: Streptococcus pyogenes IFO 3340; assay: Antibacterial activity, agar-dilution MIC, organism No. 26
Method in brief: as §1

[12] = tested on: Salmonella paratyphi-A 1015; assay: Antibacterial activity, agar-dilution MIC, organism No. 10
Method in brief: as §1

[13] = tested on: Staphylococcus aureus FDA 209PJc-1; assay: Antibacterial activity, agar-dilution MIC, organism No. 1
Method in brief: as §1

[14] = tested on: Aspergillus niger IFO 6342; assay: Antifungal activity, agar-dilution MIC, organism No. 30
Method in brief: as §1

[15] = tested on: Serratia marcescens IAM 1184; assay: Antibacterial activity, agar-dilution MIC, organism No. 13
From the text: Agar-dilution method was used for determination of the antibacterial activity and antifungal activity while using bouillon-agar culture medium, and the minimum inhibitory concentration of the specimen was expressed by μg/ml of the culture medium.

[16] = tested on: Micrococcus luteus ATCC 9341; assay: Antibacterial activity, agar-dilution MIC, organism No. 25
Method in brief: as §1

[17] = tested on: Pseudomonas aeruginosa PAO 1; assay: Antibacterial activity, agar-dilution MIC, organism No. 17
Method in brief: as §1

[18] = tested on: Proteus morganii IFO 3848; assay: Antibacterial activity, agar-dilution MIC, organism No. 18
Method in brief: as §1

[19] = tested on: Salmonella shottmuelleri 8006; assay: Antibacterial activity, agar-dilution MIC, organism No. 11
Method in brief: as §1

[20] = tested on: Klebsiella pneumoniae PCI-602; assay: Antibacterial activity, agar-dilution MIC, organism No. 7
Method in brief: as §1

[21] = tested on: Escherichia coli NIHJ-JC-2; assay: Antibacterial activity, agar-dilution MIC, organism No. 5
Method in brief: as §1

[22] = tested on: Staphylococcus aureus Terajima; assay: Antibacterial activity, agar-dilution MIC, organism No. 2
Method in brief: as §1

[23] = tested on: Pseudomonas aeruginosa NCTC 10490; assay: Antibacterial activity, agar-dilution MIC, organism No. 16
Method in brief: as §1

Proteus vulgaris OX-19 = assay: Antibacterial activity, agar-dilution MIC, organism No. 20
Method in brief: as §1

Enterobacter cloacae 963 = assay: Antibacterial activity, agar-dilution MIC, organism No. 24
Method in brief: as §1

[24] = tested on: Salmonella enteritidis G 14; assay: Antibacterial activity, agar-dilution MIC, organism No. 12
Method in brief: as §1

Proteus vulgaris HX-19 = assay: Antibacterial activity, agar-dilution MIC, organism No. 21
Method in brief: as §1

[25] = tested on: Proteus rettgeri IFO 3850; assay: Antibacterial activity, agar-dilution MIC, organism No. 22
Method in brief: as §1

**Q.** What does the source list for `[C-]#[N+]C12CC3(/C=C/C(=O)NC4OC(COC(C)=O)C(OC(C)=O)C(OC(C)=O)C4OC(C)=O)OC3C1O2` (stereo not shown) [compound 69]?
**A.** Minimum Inhibitory Concentration ([1]; Organism No. 29, bouillon-agar): 100 µg/mL; Minimum Inhibitory Concentration ([2]; Organism No. 15, bouillon-agar): > 200 µg/mL; Minimum Inhibitory Concentration ([3]; Organism No. 27, bouillon-agar): > 200 µg/mL; Minimum Inhibitory Concentration ([4]; Organism No. 3, bouillon-agar): 100 µg/mL; Minimum Inhibitory Concentration ([5]; Organism No. 19, bouillon-agar): > 200 µg/mL; Minimum Inhibitory Concentration ([6]; Organism No. 4, bouillon-agar): > 200 µg/mL; Minimum Inhibitory Concentration ([7]; Organism No. 8, bouillon-agar): > 200 µg/mL; Minimum Inhibitory Concentration ([8]; Organism No. 23, bouillon-agar): > 200 µg/mL; Minimum Inhibitory Concentration ([9]; Organism No. 14, bouillon-agar): > 200 µg/mL; Minimum Inhibitory Concentration (Salmonella typhi 901; Organism No. 9, bouillon-agar): > 200 µg/mL; Minimum Inhibitory Concentration ([10]; Organism No. 6, bouillon-agar): > 200 µg/mL; Minimum Inhibitory Concentration ([11]; Organism No. 26, bouillon-agar): 50 µg/mL; Minimum Inhibitory Concentration ([12]; Organism No. 10, bouillon-agar): 200 µg/mL; Minimum Inhibitory Concentration ([13]; Organism No. 1, bouillon-agar): 100 µg/mL; Minimum Inhibitory Concentration ([14]; Organism No. 30, bouillon-agar): 100 µg/mL; Minimum Inhibitory Concentration ([15]; Organism No. 13, bouillon-agar): > 200 µg/mL; Minimum Inhibitory Concentration ([16]; Organism No. 25, bouillon-agar): 100 µg/mL; Minimum Inhibitory Concentration ([17]; Organism No. 17, bouillon-agar): > 200 µg/mL; Minimum Inhibitory Concentration ([18]; Organism No. 18, bouillon-agar): > 200 µg/mL; Minimum Inhibitory Concentration ([19]; Organism No. 11, bouillon-agar): > 200 µg/mL; Minimum Inhibitory Concentration ([20]; Organism No. 7, bouillon-agar): > 200 µg/mL; Minimum Inhibitory Concentration ([21]; Organism No. 5, bouillon-agar): > 200 µg/mL; Minimum Inhibitory Concentration ([22]; Organism No. 2, bouillon-agar): > 200 µg/mL; Minimum Inhibitory Concentration ([23]; Organism No. 16, bouillon-agar): > 200 µg/mL; Minimum Inhibitory Concentration (Proteus vulgaris OX-19; Organism No. 20, bouillon-agar): > 200 µg/mL; Minimum Inhibitory Concentration (Enterobacter cloacae 963; Organism No. 24, bouillon-agar): > 200 µg/mL; Minimum Inhibitory Concentration ([24]; Organism No. 12, bouillon-agar): > 200 µg/mL; Minimum Inhibitory Concentration (Proteus vulgaris HX-19; Organism No. 21, bouillon-agar): > 200 µg/mL; Minimum Inhibitory Concentration ([25]; Organism No. 22, bouillon-agar): > 200 µg/mL

**Q.** Which results are given for `[C-]#[N+]C12CC3(/C=C/C(=O)Nc4nc[nH]n4)OC3C1O2` (stereo not shown) [compound 78]?
**A.** MIC ([1]; Candida albicans, IAM4905, read-out: Minimum Inhibitory Concentration): > 200 µg/mL; MIC ([2]; Pseudomonas aeruginosa, IFO3445, read-out: Minimum Inhibitory Concentration): > 200 µg/mL; MIC ([3]; Enterococcus faecium, IFO3826, read-out: Minimum Inhibitory Concentration): 200 µg/mL (≈ 772 µM); MIC ([4]; Staphylococcus aureus, MS353, read-out: Minimum Inhibitory Concentration): 50 µg/mL (≈ 193 µM); MIC ([5]; Proteus mirabilis, IFO3849, read-out: Minimum Inhibitory Concentration): 200 µg/mL (≈ 772 µM); MIC ([6]; Streptococcus pyogenes, read-out: Minimum Inhibitory Concentration): 100 µg/mL (≈ 386 µM); MIC ([7]; Salmonella enterica, read-out: Minimum Inhibitory Concentration): 100 µg/mL (≈ 386 µM); MIC ([8]; Klebsiella aerogenes, ATCC13048, read-out: Minimum Inhibitory Concentration): > 200 µg/mL; MIC ([9]; Bacillus subtilis, ATCC6633, read-out: Minimum Inhibitory Concentration): 100 µg/mL (≈ 386 µM); MIC (Salmonella typhi 901; Salmonella enterica, TYPHI, read-out: Minimum Inhibitory Concentration): 25 µg/mL (≈ 96.4 µM); MIC ([10]; Escherichia coli, IAM1264, read-out: Minimum Inhibitory Concentration): 100 µg/mL (≈ 386 µM); MIC ([11]; Streptococcus pyogenes, IFO3340, read-out: Minimum Inhibitory Concentration): 100 µg/mL (≈ 386 µM); MIC ([12]; Salmonella enterica, PARATYPHI, read-out: Minimum Inhibitory Concentration): 50 µg/mL (≈ 193 µM); MIC ([13]; Staphylococcus aureus, FDA209PJC1, read-out: Minimum Inhibitory Concentration): 50 µg/mL (≈ 193 µM); MIC ([14]; Aspergillus niger, IFO6342, read-out: Minimum Inhibitory Concentration): 200 µg/mL (≈ 772 µM); MIC ([15]; Serratia marcescens, IAM1184, read-out: Minimum Inhibitory Concentration): > 200 µg/mL; MIC ([16]; Micrococcus luteus, ATCC9341, read-out: Minimum Inhibitory Concentration): 100 µg/mL (≈ 386 µM); MIC ([17]; Pseudomonas aeruginosa, PAO1, read-out: Minimum Inhibitory Concentration): > 200 µg/mL; MIC ([18]; Morganella morganii, IFO3848, read-out: Minimum Inhibitory Concentration): 50 µg/mL (≈ 193 µM); MIC ([19]; Salmonella, 8006, read-out: Minimum Inhibitory Concentration): 50 µg/mL (≈ 193 µM); MIC ([20]; Klebsiella pneumoniae, PCI602, read-out: Minimum Inhibitory Concentration): 200 µg/mL (≈ 772 µM); MIC ([21]; Escherichia coli, NIHJJC2, read-out: Minimum Inhibitory Concentration): 100 µg/mL (≈ 386 µM); MIC ([22]; Staphylococcus aureus, read-out: Minimum Inhibitory Concentration): 200 µg/mL (≈ 772 µM); MIC ([23]; Pseudomonas aeruginosa, NCTC10490, read-out: Minimum Inhibitory Concentration): > 200 µg/mL; MIC (Proteus vulgaris OX-19; Proteus vulgaris, OX19, read-out: Minimum Inhibitory Concentration): 50 µg/mL (≈ 193 µM); MIC (Enterobacter cloacae 963; Enterobacter cloacae, 963, read-out: Minimum Inhibitory Concentration): > 200 µg/mL; MIC ([24]; Salmonella enterica, ENTERITIDIS, read-out: Minimum Inhibitory Concentration): 50 µg/mL (≈ 193 µM); MIC (Proteus vulgaris HX-19; Proteus vulgaris, HX19, read-out: Minimum Inhibitory Concentration): 50 µg/mL (≈ 193 µM); MIC ([25]; Providencia rettgeri, IFO3850, read-out: Minimum Inhibitory Concentration): 200 µg/mL (≈ 772 µM)
